What was measured:
[1] = system: Naturally Occurring Hepatoma; assay: Carcinogenesis-inhibiting effect with regard to naturally occurring hepatoma; assay type: in vivo, C3H/He female mice
Procedure: C3H/He female mice (control group: 14 mice; test group: 12 mice), in which hepatoma is known to occur naturally, were allowed to freely take food and water for 40 weeks. For the mice of the test group, 20 mg zeaxanthin (having a purity of 98.5%) which was obtained in a manner similar to that of the above example of production of zeaxanthin was suspended in 1 ml dimethyl sulfoxide (DMSO), and thereafter the suspension was added to the drinking water of the test so that the final concentration of zeaxanthin was 0.005%. On the other hand, for the control group, only DMSO in the same amount was added to the drinking water. At the end of the 40 weeks, both groups of mice were sacrificed, and the number of tumors which occurred in the liver was counted.

[2] = system: colon cancer strain highly metastasizable to liver (MOUSE COLON 26); assay: Inhibition of metastasis of colon cancer to liver; assay type: in vivo, BALB/c mouse; conditions: for Number of visible tumor tubers (average ± SD): liver
Procedure: The abdomen of a BALB/c mouse was sectioned, and 2 × 10^4 cells of a colon cancer strain highly metastasizable to liver (MOUSE COLON 26) were injected into the portal vein. Zeaxanthin (4 µg/mouse in Test Example 1; 40 µg/mouse in Test Example 2; 400 µg/mouse in Test Example 3) and all-trans retinoic acid (ATRA) as a positive control were orally administered everyday for 5 consecutive days after the inoculation with tumor cells and then the administration was discontinued for 2 days. The cycle of the 5-day administration and the 2-day discontinuation was repeated twice. Twenty days later, the mouse was sacrificed, and the number of visible tumor tubers in the liver was counted. In Table 2, the mark "*" indicates a significant difference when p < 0.005 (Whitney's U-test).

B16-BL6 melanoma cells = assay: Inhibition of invasion of basement membrane (Transwell chamber); assay type: cell-based; conditions: 4 hours
Procedure: The action mechanism of zeaxanthin for inhibiting metastasis of colon cancer to the liver in Example 2 was examined using a Transwell chamber.
A chamber which is separated into two layers (upper and lower layers) by a membrane filter having pores of 8 µm in diameter was used, the upper surface of the filter being coated with 5 µg of matrigel (a substrate for restructuring a basement membrane), and the lower surface being coated with 1 µg of fibronectin. B16-BL6 melanoma cells having a cell density of […] were added to the upper layer of the chamber, and were incubated in a 5%-CO2 incubator at 37°C for 4 hours in the presence of 0.05∼500 µM of zeaxanthin. After the incubation, the number of cells which invaded the surface of the lower part of the filter and shifted thereto were counted using an optical microscope. […]

lung cancer = assay: Inhibition of carcinogenesis (lung), 4-nitroquinoline-1-oxide initiator / glycerin promoter; assay type: in vivo, ddY mice
Procedure: As a carcinogenesis initiator, 4-nitroquinoline-1-oxide dissolved in a solution of olive oil and cholesterol mixed in the ratio of 20:1 was administered subcutaneously in a single dose to ddY mice (a control group of 15 mice and a test group of 15 mice) in an amount of 10 mg/3.3ml/kg weight. Four weeks after administration, an 8% water solution of glycerin as a carcinogenesis promoter was given to the mice of the control group as drinking water for 25 weeks in a manner such that they could take it freely. (The duration of carcinogenesis promotion was 25 weeks).
In a manner similar to that for the control group, the carcinogenesis initiator was subcutaneously administered to the mice of the test group, and 4 weeks after the administration, an 8% water solution of glycerin as a carcinogenesis promoter was given to the mice of the test group as drinking water for 25 weeks in a manner such that they could take it freely, while zeaxanthin suspended in a liquid mixture of olive oil and "Tween 80" was forcibly administered to the mice of the test group 3 times a week throughout the 25-week duration of carcinogenesis promotion in an amount of 0.2 g per mouse per administration.
In addition, food and drinking water was given to the mice in a manner such that they could take it freely. Twenty five weeks after the start of the administration of zeaxanthin, that is, after the duration of carcinogenesis promotion was completed, the mice of both the control group and the test group were sacrificed, and the number of mice in which lung cancer occurred, and the average number of tumors were counted.
(§1) In Table 4, those values in parentheses indicate values obtained by dividing the number of mice in each group in which lung cancer occurred by the total number of mice in each group. The average number of tumors was obtained by dividing the total number of tumors in all mice in each group by the total number of mice in each group.

skin cancer = assay: Inhibition of carcinogenesis (skin), 7,12-dimethylbenz[a]anthracene / TPA; assay type: in vivo, ICR male mouse
Procedure: The back of an ICR male mouse (control group: 15 mice; test group: 14 mice) was shaved, and 100 µg of 7,12-dimethylbenz[a]anthracene in 100 µl of acetone was applied thereto. Two days after the application, application of 1.6 nmol of 12-O-tetradecanoylphorbal-13-acetate (TPA) in 100 µl of acetone was begun and repeated twice a week. The duration of carcinogenesis promotion was set to 15 weeks.
An hour before every TPA application, 160 nmol zeaxanthin (which makes the molar ratio of TPA to zeaxanthin 1:100) in 100 µl of acetone was applied to the mice of test group. After the 15-week duration of carcinogenesis promotion, the ratio of occurrence of skin tumor and the average number of tumors were measured.
as §1, with “5,” for “4,”, “skin” for “lung”

[3] = Acute toxicity test on mice; parameters: species or system mouse (ICR male); conditions: mouse, in vivo; oral by gastric probe, 1000 or 2000 mg/kg, n=3, 7 days observation; approximate, estimated from survival rate
Procedure: Using a gastric probe, zeaxanthin (having a purity of 98.5%) was forcibly orally administered to each mouse (ICR male weighing 20∼25 g, n=3) in an amount of 1000 or 2000 mg/kg. After the oral administration, the mice were reared in a cage for 7 days to observe the number of deaths and general conditions. An approximate median lethal dose (LD50, in mg/kg) was estimated from the survival rate of the mice after observation.

[4] = from average number of tumors, test group versus control group

CC1=C(/C=C/C(C)=C/C=C/C(C)=C/C=C/C=C(C)/C=C/C=C(C)/C=C/C2=C(C)C[C@@H](O)CC2(C)C)C(C)(C)C[C@H](O)C1 [zeaxanthin]
inhibition rate ([1]; test group versus control group, 40 weeks): 95%
Number of mice in which tumor occurred (percentage) ([1]; zeaxanthin 0.005% in drinking water, 40 weeks, 12 mice (control 35.7%)): 8.3%
Number of mice in which tumor occurred ([1]; zeaxanthin 0.005% in drinking water, 40 weeks, 12 mice, liver tumors (control 5 of 14)): 1
Average number of tumors ([1]; zeaxanthin 0.005% in drinking water, 40 weeks, liver (control 1.75)): 0.08
Number of visible tumor tubers (average ± SD) ([2]; 4 µg/mouse orally, 5 days on / 2 days off, cycle repeated twice, twenty days later (no administration 12.25 ± 6.13)): 6.86 ± 2.27
Average weight of liver ([2]; 4 µg/mouse orally, twenty days later (no administration 2.16)): 1.36 g
Number of visible tumor tubers (average ± SD) ([2]; 40 µg/mouse orally, 5 days on / 2 days off, cycle repeated twice, twenty days later, * p < 0.005): 1.87 ± 1.96*
Average weight of liver ([2]; 40 µg/mouse orally, twenty days later): 0.99 g
Number of visible tumor tubers (average ± SD) ([2]; 400 µg/mouse orally, 5 days on / 2 days off, cycle repeated twice, twenty days later, * p < 0.005): 1.00 ± 2.13*
Average weight of liver ([2]; 400 µg/mouse orally, twenty days later): 0.99 g
Number of cells which invaded/shifted to basement membrane (B16-BL6 melanoma cells; 0.05 µM, 37°C (DMSO only 157 ± 21)): 137 ± 17
Number of cells which invaded/shifted to basement membrane (B16-BL6 melanoma cells; 0.5 µM, 37°C): 119 ± 17
Number of cells which invaded/shifted to basement membrane (B16-BL6 melanoma cells; 5 µM, 37°C, * p < 0.05): 109 ± 12*
Number of cells which invaded/shifted to basement membrane (B16-BL6 melanoma cells; 50 µM, 37°C, ** p < 0.005): 88 ± 7**
Number of cells which invaded/shifted to basement membrane (B16-BL6 melanoma cells; 500 µM, 37°C, ** p < 0.005): 36 ± 12**
Average number of tumors (lung cancer; 0.2 g per mouse per administration, 3 times a week, 25 weeks (control 1.40)): 0.38
Number of mice in which lung cancer occurred (divided by total number of mice) (lung cancer; 0.2 g per mouse per administration, 3 times a week, 25 weeks (control 73%)): 33%
Number of mice in which lung cancer occurred (lung cancer; 0.2 g per mouse per administration, 3 times a week, 25 weeks, 15 mice (control 11 of 15)): 5
Inhibition ratio of carcinogenesis (lung cancer; [4]): 73%
Average number of tumors (skin cancer; 160 nmol applied an hour before every TPA application, 15 weeks (control 1.60)): 0.86
Number of mice in which skin cancer occurred (divided by total number of mice) (skin cancer; 160 nmol applied an hour before every TPA application, 15 weeks (control 47%)): 21%
Number of mice in which skin cancer occurred (skin cancer; 160 nmol applied an hour before every TPA application, 15 weeks, 14 mice (control 7 of 15)): 3
Inhibition ratio of carcinogenesis (skin cancer; [4]): 46%
LD50 at 168 h [3]: > 2000 mg/kg

CC1=C(/C=C/C(C)=C/C=C/C(C)=C/C=C/C=C(C)/C=C/C=C(C)/C=C/C2=C(C)CCCC2(C)C)C(C)(C)CCC1 [β-carotene, reference compound]
effect in inhibiting natural carcinogenesis ([1]; experiments conducted in the same manner as in Example 1): no such effect

CC1=C(/C=C/C(C)=C/C=C/C(C)=C/C(=O)O)C(C)(C)CCC1 [ATRA, all-trans retinoic acid, reference compound]
Number of visible tumor tubers (average ± SD) ([2]; positive control, orally, dose not given, twenty days later, * p < 0.005): 0.83 ± 1.17*
Average weight of liver ([2]; positive control, orally, dose not given, twenty days later): 0.92 g
